Here are results for 6 compounds from ChEMBL document CHEMBL5724914, “Linking interpersonal differences in gut microbiota composition and drug biotransformation activity” (2024).

Data set [1] can be described thus: The drug is tested on Z-030 corresponding to mouse gut metagenome with ENA study accession number: PRJEB37062 and ENA sample accession number: ERS12561829 for biotransformation under anaerobic condition. The drug concentrations were measured over 9 timepoints collected between 0 and 24 hours of incubation by liquid-chromatography-coupled mass spectrometry (LC–MS). The conditions noted are these: 2 µM.

Data set [2] in a line: The drug is tested on Z-025 corresponding to rabbit gut metagenome with ENA study accession number: PRJEB37062 and ENA sample accession number: ERS12561824 for biotransformation under anaerobic condition. The drug concentrations were measured over 9 timepoints collected between 0 and 24 hours of incubation by liquid-chromatography-coupled mass spectrometry (LC–MS). The note with it: 2 µM.

Data set [3] can be described thus: The drug is tested on Z-014 corresponding to rat gut metagenome with ENA study accession number: PRJEB37062 and ENA sample accession number: ERS12561814 for biotransformation under anaerobic condition. The drug concentrations were measured over 9 timepoints collected between 0 and 24 hours of incubation by liquid-chromatography-coupled mass spectrometry (LC–MS). The conditions noted are these: 2 µM.

The nature of data set [4]: The drug is tested on Z-013 corresponding to rabbit gut metagenome with ENA study accession number: PRJEB37062 and ENA sample accession number: ERS12561813 for biotransformation under anaerobic condition. The drug concentrations were measured over 9 timepoints collected between 0 and 24 hours of incubation by liquid-chromatography-coupled mass spectrometry (LC–MS). The conditions noted are these: 2 µM.

Data set [5] is described as follows: The drug is tested on Z-008 corresponding to metagenome with ENA study accession number: PRJEB37062 and ENA sample accession number: ERS12561808 for biotransformation under anaerobic condition. The drug concentrations were measured over 9 timepoints collected between 0 and 24 hours of incubation by liquid-chromatography-coupled mass spectrometry (LC–MS). The conditions noted are these: 2 µM.

Data set [6] is described as follows: The drug is tested on WLS-370 corresponding to human gut metagenome with ENA study accession number: PRJEB37062 and ENA sample accession number: ERS12561793 for biotransformation under anaerobic condition. The drug concentrations were measured over 9 timepoints collected between 0 and 24 hours of incubation by liquid-chromatography-coupled mass spectrometry (LC–MS). The note with it: 2 µM.

A short description of data set [7]: The drug is tested on WLS-090 corresponding to human gut metagenome with ENA study accession number: PRJEB37062 and ENA sample accession number: ERS12561753 for biotransformation under anaerobic condition. The drug concentrations were measured over 9 timepoints collected between 0 and 24 hours of incubation by liquid-chromatography-coupled mass spectrometry (LC–MS). The conditions noted are these: 2 µM.

Data set [8] can be described thus: The drug is tested on WLS-082 corresponding to human gut metagenome with ENA study accession number: PRJEB37062 and ENA sample accession number: ERS12561751 for biotransformation under anaerobic condition. The drug concentrations were measured over 9 timepoints collected between 0 and 24 hours of incubation by liquid-chromatography-coupled mass spectrometry (LC–MS). The note with it: 2 µM.

Data set [9] can be described thus: The drug is tested on WLS-069 corresponding to human gut metagenome with ENA study accession number: PRJEB37062 and ENA sample accession number: ERS12561748 for biotransformation under anaerobic condition. The drug concentrations were measured over 9 timepoints collected between 0 and 24 hours of incubation by liquid-chromatography-coupled mass spectrometry (LC–MS). The note with it: 2 µM.

A short description of data set [10]: The drug is tested on WLS-027 corresponding to human gut metagenome with ENA study accession number: PRJEB37062 and ENA sample accession number: ERS12561744 for biotransformation under anaerobic condition. The drug concentrations were measured over 9 timepoints collected between 0 and 24 hours of incubation by liquid-chromatography-coupled mass spectrometry (LC–MS). The conditions noted are these: 2 µM.

Data set [11] is described as follows: The drug is tested on WLS-010 corresponding to human gut metagenome with ENA study accession number: PRJEB37062 and ENA sample accession number: ERS12561743 for biotransformation under anaerobic condition. The drug concentrations were measured over 9 timepoints collected between 0 and 24 hours of incubation by liquid-chromatography-coupled mass spectrometry (LC–MS). The note with it: 2 µM.

The nature of data set [12]: The drug is tested on WLS-007 corresponding to human gut metagenome with ENA study accession number: PRJEB37062 and ENA sample accession number: ERS12561742 for biotransformation under anaerobic condition. The drug concentrations were measured over 9 timepoints collected between 0 and 24 hours of incubation by liquid-chromatography-coupled mass spectrometry (LC–MS). The note with it: 2 µM.

The conditions of data set [13]: human gut metagenome, 24 h, 2 µM.
The conditions of data set [14]: human gut metagenome, 24 h, 2 µM. This is another data set of the same source.
For data set [15] the following is noted: human gut metagenome, 24 h, 2 µM. This is another data set of the same source.
For data set [16] the following is noted: human gut metagenome, 24 h, 2 µM. The source holds these as a separate data set.
For data set [17] the following is noted: human gut metagenome, 24 h, 2 µM. The source holds these as a separate data set.
The conditions of data set [18]: human gut metagenome, 24 h, 2 µM. The source holds these as a separate data set.
The conditions of data set [19]: human gut metagenome, 24 h, 2 µM. The source holds these as a separate data set.
The conditions of data set [20]: human gut metagenome, 24 h, 2 µM. The source holds these as a separate data set.
Also: call rule not given here.

Turning to `CCCc1nc2c(C)cc(-c3nc4ccccc4n3C)cc2n1Cc1ccc(-c2ccccc2C(=O)O)cc1`, the “Bacterial Biotransformation” value in data set [1] is “Compound NOT metabolized”; in [2], “Compound metabolized”; in data set [3] it was “Compound metabolized”; in [4], “Compound metabolized”; in [5] it was “Compound metabolized”; in data set [6] it was “Compound metabolized”. In addition, the “Bacterial Biotransformation” value in [7], in data set [8], in [9], in data set [10], in [11] and in data set [12] was “Compound metabolized” each time. Also, the “Bacterial Biotransformation” value in data set [13], in [14], in [15], in data set [16], in [17] and in [18] was “Compound metabolized” throughout. In addition, the “Bacterial Biotransformation” value in data set [19] and in data set [20] was “Compound metabolized” throughout.
Turning to `CCCCC(=O)N(Cc1ccc(-c2ccccc2-c2nnn[nH]2)cc1)[C@H](C(=O)O)C(C)C`, the “Bacterial Biotransformation” value is “Compound NOT metabolized” in data set [1]; “Compound NOT metabolized” in [2]; “Compound NOT metabolized” in [3]; “Compound NOT metabolized” in [4]; “Compound NOT metabolized” in [5]; “Compound metabolized” in [6]. Further, the “Bacterial Biotransformation” value in [7], in data set [8], in data set [9], in [10], in [11] and in data set [12] was “Compound metabolized” in each case. Also, the “Bacterial Biotransformation” value in data set [13], in [14], in data set [15], in data set [16], in data set [17] and in data set [18] was “Compound metabolized” in each case. For the same compound, the “Bacterial Biotransformation” value in data set [19] and in data set [20] was “Compound metabolized” each time.
Consider `Cc1cc2c(cc1S(N)(=O)=O)S(=O)(=O)CCC2`, for which the “Bacterial Biotransformation” value in data set [1], in [2], in data set [3], in data set [4], in [5] and in [6] was “Compound NOT metabolized” throughout. Also, the “Bacterial Biotransformation” value in data set [7], in data set [8], in [9], in data set [10], in data set [11] and in data set [12] was “Compound NOT metabolized” throughout. Further, the “Bacterial Biotransformation” value in data set [13], in data set [14], in data set [15], in [16], in data set [17] and in data set [18] was “Compound NOT metabolized” each time. Besides, the “Bacterial Biotransformation” value in [19] and in data set [20] was “Compound NOT metabolized” throughout.
In the case of `CCC(COC(=O)c1cc(OC)c(OC)c(OC)c1)(c1ccccc1)N(C)C.O=C(O)/C=C\C(=O)O` (stereo not given), the “Bacterial Biotransformation” value in data set [1], in [2], in data set [3], in [4], in [5] and in data set [6] was “Compound NOT metabolized” throughout. Besides, the “Bacterial Biotransformation” value in data set [7] is recorded as “Compound NOT metabolized”; in data set [8] it was “Compound metabolized”; in [9] it was “Compound metabolized”; in [10], “Compound metabolized”; in data set [11], “Compound NOT metabolized”; in data set [12] it was “Compound NOT metabolized”. The “Bacterial Biotransformation” value was “Compound metabolized” in [13]; “Compound NOT metabolized” in data set [14]; “Compound metabolized” in [15]; “Compound NOT metabolized” in data set [16]; “Compound NOT metabolized” in data set [17]; “Compound metabolized” in data set [18]. The results for the “Bacterial Biotransformation” value in [19] and in data set [20] were “Compound NOT metabolized” and “Compound metabolized”, respectively.
In the case of `COc1ccc(CCN(C)CCCC(C#N)(c2ccc(OC)c(OC)c2)C(C)C)cc1OC` (stereo not given), the “Bacterial Biotransformation” value in data set [1] is recorded as “Compound NOT metabolized”; in data set [2] it was “Compound NOT metabolized”; in data set [3], “Compound NOT metabolized”; in [4], “Compound NOT metabolized”; in data set [5], “Compound NOT metabolized”; in data set [6], “Compound metabolized”. In addition, the “Bacterial Biotransformation” value in data set [7], in data set [8], in data set [9], in [10], in data set [11] and in [12] was “Compound metabolized” in each case. The “Bacterial Biotransformation” value is on record as “Compound metabolized” in [13]; “Compound metabolized” in [14]; “Compound metabolized” in data set [15]; “Compound metabolized” in [16]; “Compound NOT metabolized” in [17]; “Compound metabolized” in data set [18]. Besides, the “Bacterial Biotransformation” value in [19] was “Compound NOT metabolized”; in [20], “Compound metabolized”.
On to `CN1CC(=O)N2[C@H](c3ccc4c(c3)OCO4)c3[nH]c4ccccc4c3C[C@@H]2C1=O`, for which the “Bacterial Biotransformation” value is on record as “Compound NOT metabolized” in data set [1]; “Compound NOT metabolized” in data set [2]; “Compound NOT metabolized” in data set [3]; “Compound NOT metabolized” in data set [4]; “Compound NOT metabolized” in data set [5]; “Compound metabolized” in data set [6]. The “Bacterial Biotransformation” value in [7], in data set [8], in [9], in data set [10], in data set [11] and in [12] was “Compound metabolized” throughout. Also, the “Bacterial Biotransformation” value was “Compound metabolized” in [13]; “Compound metabolized” in data set [14]; “Compound metabolized” in data set [15]; “Compound NOT metabolized” in [16]; “Compound metabolized” in data set [17]; “Compound metabolized” in data set [18]. Besides, the “Bacterial Biotransformation” value in [19] and in [20] was “Compound metabolized” in each case.
